Source: patent publication US20200384079A1, “Compositions of Fibroblast Growth Factor LIgands and Methods of Treating Patients Undergoing Ischemia-Reperfusion Therapy” (University of Cincinnati, priority 2017, published 2020)
“Also recorded” adds a separate entry of the source. Where two headings read alike, the source gives them in different places.

Columns and labels:
[1] = biological target: FGFR3c ectodomain (extracellular ligand binding domain of FGFR3c) (UniProt P22607); assay: ITC; FGF1 injected into FGFR3c ectodomain in the cell
[2] = biological target: FGFR3c ectodomain (extracellular ligand binding domain of FGFR3c) (UniProt P22607); assay: ITC; FGF1^ΔHBS injected into FGFR3c ectodomain in the cell
[3] = system: in vivo rat model of myocardial infarction; assay: In vivo rat ischemia-reperfusion model, infarct size (TTC); design: species or system Sprague Dawley rats; settings: for effect on infarct size (in words): given at reperfusion, no heparin co-therapy; for reduction in infarct size compared to saline/vehicle control: given i.v. at reperfusion alone (FGF 10 μg/kg; heparin 12 U/kg/hr); for effect on infarct size / cardioprotection (in words): FGF given at reperfusion with heparin co-therapy
Method: CVR-2016-799R1 signaling and the other two sets were to evaluate the pharmacokinetic properties of native FGF1 and modified FGF1 (FGF1^ΔHBS). The first set of experiments was for the ischemia/reperfusion study in which animals were divided into six groups as follows: (1) saline group: saline treatment given intravenously for 10 minutes immediately upon reperfusion, (2) heparin group: heparin, 60 U/kg intravenous (i.v.) bolus, given immediately at reperfusion+12 U/kg/hr i.v. infusion for 120 minutes of reperfusion, (3) FGF1 group: FGF1, 10 μg/kg i.v. infusion, given for 10 minutes immediately at reperfusion, (4) FGF1+heparin: heparin, 60 U/kg bolus, given immediately upon reperfusion followed by FGF1, 10 μg/kg i.v. infusion, given for 10 minutes and 12 U/kg/hr i.v. infusion given for 110 minutes of reperfusion, (5) modified FGF1 (FGF1^ΔHBS) group: FGF1^ΔHBS, 10 μg/kg i.v. infusion, given for 10 minutes, or (6) FGF1^ΔHBS+heparin: heparin, 60 U/kg bolus, given immediately at reperfusion followed by FGF1^ΔHBS, 10 μg/kg i.v. infusion, given for 10 minutes and 12 U/kg/hr i.v. infusion for 110 minutes of reperfusion. All rats were subjected to 30 minutes of regional ischemia and 120 minutes of reperfusion. Drugs were administered at the onset of reperfusion via the jugular vein (FIG. 2A). […] A total of ninety-six rats was completed for the I/R study. Sample size for each group ranged from 9-16 depending on the power analysis. A total of thirty-five rats were excluded from the study based on the lack of cyanosis of the heart or typical elevation of the ST segment in the electrocardiogram during ischemia, and death from malignant arrhythmia. For the biodistribution or FGF1 signaling study, rats were randomly divided into six groups as described above (FIG. 2B). Following drug treatment (immediately following 15 minutes of treatment or 105 minutes post-treatment at the point which mimics the length of time of reperfusion), solid organs and blood (see sections “Tissue collection for exogenous FGF1 biodistribution” and “Cardiac preparation to detect the activation of FGF1 downstream molecules”) were collected. A total of 33 rats were used for biodistribution and FGF1 signaling studies, and 3 rats were excluded due to anesthetic overdose. Also, a total of 8 plasma samples were excluded because of hemolysis. For elimination half-life of native FGF1 and FGF1^ΔHBS, 12 rats were randomly divided into two groups and treated intraperitoneally with either FGF1 form as described in the section “Pharmacokinetic evaluation of exogenous FGF1 or FGF1^ΔHBS ”.
The in vivo I/R model was established by ligating and loosening the left anterior CVR-2016-799R1 descending artery (LAD) previously described by our laboratory. In brief, rats were anesthetized with thiobutabarbital sodium salt hydrate, Inactin® hydrate (100 mg/kg, i.p., Sigma-Aldrich), and intubated and artificially ventilated via a rodent respirator (respiratory rate: 75 strokes/minute; tidal volume: 3 mL; Model 683, Harvard, USA). The heart was exposed through a left thoracotomy and pericardiotomy, and a 6-0 silk suture was placed around the left anterior descending (LAD) coronary artery. After equilibration for 15 minutes, hearts were subjected to 30 minutes of ischemia by ligating the LAD via a snare occluder and reperfusion occurred for 120 minute via loosening the snare occluder. The appearance of cyanosis of the heart and significant ST-segment elevation in the electrocardiogram were used to verify successful ligation.
At the end of the ischemia-reperfusion injury study, the LAD was re-occluded with the suture used previously for the establishment of ischemia. 5% Evans blue dye solution was given via the jugular vein to define the area-at-risk (AAR). Then, the heart was arrested in diastole with 1 mL of 15% potassium chloride, and the animal was euthanized with an anesthetic overdose followed by a bilateral pneumothorax for removal of the heart. […]

[4] = system: in vivo rat model of myocardial infarction; settings: rat; for post-ischemic cardiac function (in words): given at reperfusion, no heparin co-therapy
[5] = Blood clotting time (tail nick); assay type: in vivo, rat; settings: for Clotting time: 15 mins post treatment, single agent
Method: In sets of experiments, blood clotting time was detected at baseline and 15 minutes after drug treatment. In brief, a nick 1-2 mm depth was made at 5 cm and 3 cm of the proximal tail for baseline and post-drug blood clotting time, respectively; the tail nick was blotted with 4×4 gauze every 15 seconds until bleeding totally stopped, and blood clotting time was recorded from the onset of bleeding until it stopped.
Heparan sulfate proteoglycans or heparin regulates the bioavailability of FGFs. In order to develop a “cardioprotective” FGF as a therapeutic against ischemic heart disease, it was necessary to elucidate the efficacy of these cardiac FGFs in the presence of heparin treatment. Therefore, native rhFGFs (FGF 1, 2, 4, or 5) or vehicle are infused intravenously (at dose indicated above) in conjunction with unfractionated (12 units/kg/hr, i.v.) or low molecular weight heparin (enoxaparin 1 mg·kg, s.c.) during the first 15 minutes of reperfusion (FIG. 12A), and post-ischemic recovery of cardiac function and the degree of myocardial infarction is assessed. […] Unfractionated or low molecular weight heparin is administered alone during early reperfusion to elucidate the cardioprotective effects of heparins against IR injury. Whether FGF administration alters heparin activity is evaluated. To assess this potential interaction, activated clotting time (ACT) is assessed in vehicle-treated or FGF-treated groups in the absence or presence of heparin co-administration. Baseline and 15 minute post-drug treatment ACT is determined. It has been established that a heparin response occurs within 1 minute after an intravenous dose in humans and that no more time is required to achieve a predicted ACT.

ERK1/2 = ERK1/2 activation (phosphorylation) in left ventricle, immunoblot; assay type: in vivo, rat; settings: immediately post-treatment, no FGF+heparin co-treatment
Method: Hearts from rats treated with saline, native FGF1 or FGF1^ΔHBS in the presence or absence of heparin were collected immediately after administration and at 120 minutes post-treatment for evaluation of downstream signaling. One-half of each snap-frozen heart was powdered and homogenized in protein extraction buffer as previously described by our laboratory. For FGFR1, 150 μg of total protein were loaded onto a 8% SDS-PAGE gel, for ERK1/2 activation, 20 μg of whole cell protein homogenate was loaded onto a 15% SDS-PAGE gel, and for PKCα and PKCδ, […] of whole cell protein homogenate was loaded onto a 10% SDS-PAGE gel and then transferred to nitrocellulose membrane. 0.1% Ponceau S in 5% acetic acid was used to examine the transfer efficiency and loading equality as described previously 43. Membranes were blocked with 5% dry milk and then incubated with primary antibody against phospho-FGFR1 (Y-654, 1:500, Cell Signaling), phospho-ERK1/2 (1:1000, Cell Signaling) or phospho-PKCα (1:500, Santa Cruz) or phospho-PKCδ (1:500, Santa Cruz) followed by incubation with HRP-conjugated secondary goat anti-rabbit antibody (1:3000, Santa Cruz Biotechnology). Membranes were stripped and reprobed with antibodies against total FGFR1 (1:500, Cell Signaling), total ERK (1:1000, BD Transduction Labs) or total PKCα (1:500, Santa Cruz) or PKCδ (1:500, Santa Cruz). Bound antibodies were visualized by ECL system. Activation is indicated as a ratio of phosphorylated protein/total protein. β-actin (1:1000, Cell Signaling) was also used as a loading control.
Construction of his-tagged native and heparin-binding modified rhFGFs as well as their expression and purification is performed as previously described using his-tagged expression vectors and nickel-nitrilotriacetic acid resin columns. […] His-tagged FGFs are detected in solid organs by ELISA (FIG. 14) both for FGF and histidine (data not shown), and immunoprecipitation (IP) followed by immunoblot and in plasma by ELISA as described previously. His-tags are widely used because they are small and rarely interfere with function, activity, or structure of target proteins. […] There is no observed difference in total ERK or FGFR1 expression between the treatment groups.

[6] = rat, i.v.
wildtype mouse hearts = assay: Ex vivo model, low-flow ischemia and reperfusion; settings: treatment at reperfusion, mouse hearts
Description: FIGS. 12A-12B. […] Left bar is vehicle-treated and right bar is FGF2-treated wildtype mouse hearts.

trypsin = assay: Susceptibility to proteolytic degradation by trypsin (fluorescence emission); assay type: in vitro ADME
Method: Ligand bioavailability (i.e., pharmacokinetic mechanism) can be a significant pharmacological limitation for therapeutic applicability. […] Susceptibility to protease action of FGF1^ΔTS was determined by monitoring changes in fluorescence emission during degradation by trypsin, FGF1^ΔTS (20-fold increase) and FGF2 (7-fold increase) were more resistant to proteolytic degradation than the native FGF1. It remained to be elucidated as to whether these pharmacokinetic mechanisms I.e., bioavailability and/or half-life) were enhanced in vivo as well. Therefore, detection of the bioavailability and half-life of native and thermally stable mutated ligands (FGF^ΔTS) are carried out as follows: […]

FGF receptors = settings: published data; cited from earlier work
[7] = rat, 30 min ischemia/120 min reperfusion, given i.v. at reperfusion alone (FGF 10 μg/kg; heparin 60 U/kg bolus + 12 U/kg/hr)

## native FGF1 (recombinant human fibroblast growth factor 1) (from UniProt P05230 16-155) (ligand)
[1]
  Kd: 704 nM

## FGF1^ΔHBS (FGF1 carrying the K127D/K128Q/K133V triple mutation in its HS-binding site) (from UniProt P05230 1-155) (ligand)
[2]
  Kd: 432 nM

## bisindolylmaleimide [GF109203X, reference compound]
[3]; rat, 1 mg/kg i.v., with FGF2, 1 mg/kg
  effect of PKC inhibitor on FGF2-induced cardioprotection (infarct size): abrogates the FGF2-induced cardioprotective effects of reduced myocardial infarct size; also recorded: abolished FGF2-induced cardioprotection

## Heparin sodium [reference compound]
[3]; [7]
  infarct size (% infarct, percentage of area-at-risk): 46%
[3]; rat
  effect on infarct size (in words): lowered infarct size but not to the degree of FGF2 treatment; also recorded: significantly reduced infarct size compared to saline
  reduction in infarct size compared to saline/vehicle control: 31%
[3]; rat, listed as Heparin
  effect on infarct size (in words): reduced infarct size somewhat, but not to the degree of FGF2 treatment
[4]
  post-ischemic cardiac function (in words): no significant difference in post-ischemic contractility between the saline and heparin group
[5]
  Clotting time: 15 mins post-heparin treatment: 737 +/− 127 sec (n = 4)
[5]; baseline vs 15 minutes after drug treatment
  blood clotting time post-treatment (in words): significantly longer post-treatment than at baseline
ERK1/2
  ERK1/2 activation (phosphorylation) in left ventricle (in words): not different than saline treatment
[6]; no FGF+heparin co-treatment
  tissue and plasma FGF distribution (in words): no difference in saline or heparin treatment with regard to FGF1 levels

## FGF2: native recombinant human fibroblast growth factor 2
[3]; as E6 but FGF 10 μg/kg i.v. in the presence of heparin co-administration
  infarct size (% infarct, percentage of area-at-risk): 46%
[3]; [7]
  infarct size (% infarct, percentage of area-at-risk): 26%
[3]; rat
  effect on infarct size / cardioprotection (in words): significantly inhibited FGF2's reduction in infarct size
  reduction in infarct size compared to saline/vehicle control: 57%
[3]; rat, listed as rhFGF2
  effect on infarct size / cardioprotection (in words): significantly inhibited rhFGF2-induced cardioprotection against MI
[3]; rat, listed as RhFGF2
  reduction in infarct size compared to saline/vehicle control: 70%
[4]; FGF2 at reperfusion
  recovery of left ventricular (LV) developed pressure, % of baseline: 68%
[4]
  post-ischemic cardiac function (in words): protects the heart from cardiac dysfunction; also recorded: improved relaxation compared to saline treatment
[5]
  Clotting time: 15 mins post rhFGF2 treatment: 192 +/− 120 sec (n = 5)
Wildtype mouse hearts
  cardioprotection in ex vivo model (in words): protects the heart from post-ischemic cardiac dysfunction and myocardial infarction
trypsin
  increase in proteolytic resistance compared to native FGF1: 7 fold
[6]; FGF with heparin co-administration
  tissue and plasma FGF distribution (in words): no longer targeted to the heart
[6]; no FGF+heparin co-treatment
  tissue and plasma FGF distribution (in words): increased biodistribution heart (left ventricle)
[6]; no FGF+heparin co-treatment, listed as native FGF2
  tissue and plasma FGF distribution (in words): significantly targeted to the heart

B1: FGF1^ΔTS: thermally stable mutant of FGF1 containing Q55P, S62I, and H108G FGF1-stabilizing mutations (protein, UniProt P05230 16-155, looked up, variant Q55P S62I H108G)
Fibroblast growth factor 1: FNLPPGNYKKPKLLYCSNGGHFLRILPDGTVDGTRDRSDPHIQLQLIAESVGEVYIKSTETGQYLAMDTDGLLYGSQTPNEECLFLERLEENGYNTYISKKHAEKNWFVGLKKNGSCKRGPRTHYGQKAILFLPLPVSSD
[3]; rat
  effect on infarct size (in words): marked reduction in infarct size compared to native FGF1 at the same dose; also recorded: more efficacious in reducing infarct size compared to the same dose of native FGF1
trypsin
  increase in proteolytic resistance compared to native FGF1: 20 fold
FGF receptors
  activation of FGF receptors (ERK activation, cell proliferation) (in words): greater than the native FGF1
